Assays:
Type in all cases: in vivo
Alopecurus myosuroides [1] = assay: Test Example 4: herbicidal effect by soil treatment (symbol J); conditions: application herbicide amount 320 g/ha
Excerpt: (§1) Herbicidal Effect Test by Soil Treatment
(§2) Sterilized diluvial soil was placed in a plastic box having a length of 21 cm, a width of 13 cm, and a depth of 7 cm. Each of the seeds of Digitaria ciliaris, Setaria viridis, Echinochloa crus-galli var. crus-galli, Avena fatua, Alopecurus myosuroides, Lolium multiflorum Lam., Apera spica-venti, Abutilon theophrasti, Amaranthus retroflexus, Chenopodium album, Stellaria media, Galium spurium, Veronica persica, corn, soybean, rice, wheat, beet, and rapeseed was sowed in a spot-like manner and was covered with the soil of a thickness of about 1.5 cm. Subsequently, the emulsion agent of the compound present invention prepared in accordance with Formulation Example 2 was diluted with water so as to be a predetermined herbicide amount and the diluted emulsion agent was uniformly applied to the surface of the soil with a small-size spray. The plastic box was placed in a greenhouse of 25° C. to 30° C. to grow plant. 3 weeks later from the herbicide application, the effect to each plant was investigated in accordance with the criteria of Test Example 1.

Galium spurium = assay: Test Example 4: herbicidal effect by soil treatment (symbol Q); conditions: application herbicide amount 320 g/ha
Excerpt: as §1, §2

Scirpus juncoides = assay: Test Example 2: herbicidal activity, application during weed generation in submerged conditions (symbol B); conditions: Table 23; application herbicide amount 320 g/ha; grade 0-5 by criteria of Test Example 1
Outline: (§3)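 Visual herbicidal ratings, taken three weeks after dosing, reflect post-emergence water-surface application to seedlings at one to two leaves. Conditions: co-sown weeds in alluvial soil flooded to 4 cm, greenhouse held at 25° C. to 30° C.; compound given as water-diluted emulsion at a fixed herbicide amount.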

soybean [2] = assay: Test Example 5: effect on crop by foliage application, plastic box (symbol d); conditions: 320 g/ha, 3 weeks after application
Outline: (§4)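 Soil: sterilized diluvial. Container: plastic box, 21 × 13 cm, 7 cm deep. Sowing: spot-like, ~1.5 cm cover. Growth: greenhouse, 25° C. to 30° C.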

Digitaria ciliaris [3] = assay: Test Example 5: herbicidal effect by foliage application, plastic box (symbol F); conditions: 320 g/ha, 3 weeks after application
Outline: (§5)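 Greenhouse foliar test: seedlings at 14 days, grown 25° C. to 30° C. in sterilized diluvial soil; compound applied as an aqueous dilution of an emulsion; response read 3 weeks after spraying.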

corn [4] = assay: Test Example 5: effect on crop by foliage application, plastic box (symbol c); conditions: 320 g/ha, 3 weeks after application
Outline: as §4

[5] = tested on: Echinochloa crus-galli var. crus-galli; assay: Test Example 5: herbicidal effect by foliage application, plastic box (symbol H); conditions: 320 g/ha, 3 weeks after application
Outline: as §5

Chenopodium album [6] = assay: Test Example 4: herbicidal effect by soil treatment (symbol O); conditions: application herbicide amount 320 g/ha
Excerpt: as §1, §2

Abutilon theophrasti [7] = assay: Test Example 5: herbicidal effect by foliage application, plastic box (symbol M); conditions: 320 g/ha, 3 weeks after application
Outline: as §5

rice plant = assay: Test Example 5: effect on crop by foliage application, plastic box (symbol b); conditions: 320 g/ha, 3 weeks after application
Outline: as §4

rapeseed [8] = assay: Test Example 5: effect on crop by foliage application, plastic box (symbol g); conditions: 320 g/ha, 3 weeks after application
Outline: as §4

rapeseed [9] = assay: Test Example 4: effect on crop by soil treatment (symbol g); conditions: application herbicide amount 320 g/ha
Excerpt: as §1
(§6) Sterilized diluvial soil was placed in a plastic box having a length of 21 cm, a width of 13 cm, and a depth of 7 cm. Each of the seeds of Digitaria ciliaris, Setaria viridis, Echinochloa crus-galli var. crus-galli, Avena fatua, Alopecurus myosuroides, Lolium multiflorum Lam., Apera spica-venti, Abutilon theophrasti, Amaranthus retroflexus, Chenopodium album, Stellaria media, Galium spurium, Veronica persica, corn, soybean, rice, wheat, beet, and rapeseed was sowed in a spot-like manner and was covered with the soil of a thickness of about 1.5 cm. […] The plastic box was placed in a greenhouse of 25° C. to 30° C. to grow plant.

Veronica persica [10] = assay: Test Example 5: herbicidal effect by foliage application, plastic box (symbol R); conditions: 320 g/ha, 3 weeks after application
Outline: as §5

wheat [11] = assay: Test Example 5: effect on crop by foliage application, plastic box (symbol e); conditions: 320 g/ha, 3 weeks after application
Outline: as §4

Lolium multiflorum Lam. [12] = assay: Test Example 5: herbicidal effect by foliage application, plastic box (symbol K); conditions: 320 g/ha, 3 weeks after application
Outline: as §5

[13] = tested on: Echinochloa crus-galli var. crus-galli; assay: Test Example 4: herbicidal effect by soil treatment (symbol H); conditions: application herbicide amount 320 g/ha
Excerpt: as §1, §2

Avena fatua [14] = assay: Test Example 5: herbicidal effect by foliage application, plastic box (symbol I); conditions: 320 g/ha, 3 weeks after application
Outline: as §5

beet [15] = assay: Test Example 5: effect on crop by foliage application, plastic box (symbol f); conditions: 320 g/ha, 3 weeks after application
Outline: as §4

Setaria viridis [16] = assay: Test Example 5: herbicidal effect by foliage application, plastic box (symbol G); conditions: 320 g/ha, 3 weeks after application
Outline: as §5

Chenopodium album [17] = assay: Test Example 5: herbicidal effect by foliage application, plastic box (symbol O); conditions: 320 g/ha, 3 weeks after application
Outline: as §5

soybean [18] = assay: Test Example 4: effect on crop by soil treatment (symbol d); conditions: application herbicide amount 320 g/ha
Excerpt: as §1, §6

Stellaria media [19] = assay: Test Example 5: herbicidal effect by foliage application, plastic box (symbol P); conditions: 320 g/ha, 3 weeks after application
Outline: as §5

Avena fatua [20] = assay: Test Example 4: herbicidal effect by soil treatment (symbol I); conditions: application herbicide amount 320 g/ha
Excerpt: as §1, §2

Lolium multiflorum Lam. [21] = assay: Test Example 4: herbicidal effect by soil treatment (symbol K); conditions: application herbicide amount 320 g/ha
Excerpt: as §1, §2

Amaranthus retroflexus [22] = assay: Test Example 5: herbicidal effect by foliage application, plastic box (symbol N); conditions: 320 g/ha, 3 weeks after application
Outline: as §5

Stellaria media [23] = assay: Test Example 4: herbicidal effect by soil treatment (symbol P); conditions: application herbicide amount 320 g/ha
Excerpt: as §1, §2

[24] = tested on: Echinochloa oryzacola Vasing.; assay: Test Example 2: herbicidal activity, application during weed generation in submerged conditions (symbol A); conditions: Table 23; application herbicide amount 320 g/ha; grade 0-5 by criteria of Test Example 1
Outline: as §3

Abutilon theophrasti [25] = assay: Test Example 4: herbicidal effect by soil treatment (symbol M); conditions: application herbicide amount 320 g/ha
Excerpt: as §1, §2

Setaria viridis [26] = assay: Test Example 4: herbicidal effect by soil treatment (symbol G); conditions: application herbicide amount 320 g/ha
Excerpt: as §1, §2

Alopecurus myosuroides [27] = assay: Test Example 5: herbicidal effect by foliage application, plastic box (symbol J); conditions: 320 g/ha, 3 weeks after application
Outline: as §5

Veronica persica [28] = assay: Test Example 4: herbicidal effect by soil treatment (symbol R); conditions: application herbicide amount 320 g/ha
Excerpt: as §1, §2

Monochoria vaginalis = assay: Test Example 2: herbicidal activity, application during weed generation in submerged conditions (symbol C); conditions: Table 23; application herbicide amount 320 g/ha; grade 0-5 by criteria of Test Example 1
Outline: as §3

Apera spica-venti [29] = assay: Test Example 4: herbicidal effect by soil treatment (symbol L); conditions: application herbicide amount 320 g/ha
Excerpt: as §1, §2

beet [30] = assay: Test Example 4: effect on crop by soil treatment (symbol f); conditions: application herbicide amount 320 g/ha
Excerpt: as §1, §6

rice = assay: Test Example 4: effect on crop by soil treatment (symbol b); conditions: application herbicide amount 320 g/ha
Excerpt: as §1, §6

Amaranthus retroflexus [31] = assay: Test Example 4: herbicidal effect by soil treatment (symbol N); conditions: application herbicide amount 320 g/ha
Excerpt: as §1, §2

corn [32] = assay: Test Example 4: effect on crop by soil treatment (symbol c); conditions: application herbicide amount 320 g/ha
Excerpt: as §1, §6

Digitaria ciliaris [33] = assay: Test Example 4: herbicidal effect by soil treatment (symbol F); conditions: application herbicide amount 320 g/ha
Excerpt: as §1, §2

wheat [34] = assay: Test Example 4: effect on crop by soil treatment (symbol e); conditions: application herbicide amount 320 g/ha
Excerpt: as §1, §6

Apera spica-venti [35] = assay: Test Example 5: herbicidal effect by foliage application, plastic box (symbol L); conditions: 320 g/ha, 3 weeks after application
Outline: as §5

SMILES: CC(=O)CC1CC(O)=C(c2c(C)cc(C3CC3)cc2C)C1=O (stereo not shown) [7-013]
- Herbicidal effect grade, J: Alopecurus myosuroides (Alopecurus myosuroides [1]): 0 (Herbicidal ratio of 5% or lower (almost no effect))
- Herbicidal effect grade, Q: Galium spurium (Galium spurium): 0 (Herbicidal ratio of 5% or lower (almost no effect))
- Herbicidal effect grade, B: Scirpus juncoides (Scirpus juncoides): 0 (Herbicidal ratio of 5% or lower (almost no effect))
- d: soybean, effect on crop (criteria of Test Example 1) (soybean [2]): 0 (Herbicidal ratio of 5% or lower (almost no effect))
- F: Digitaria ciliaris, herbicidal effect (criteria of Test Example 1) (Digitaria ciliaris [3]): 4 (Herbicidal ratio of 70% or higher and lower than 90%)
- c: corn, effect on crop (criteria of Test Example 1) (corn [4]): 0 (Herbicidal ratio of 5% or lower (almost no effect))
- H: Echinochloa crus-galli var. crus-galli, herbicidal effect (criteria of Test Example 1) [5]: 1 (Herbicidal ratio of 5% or higher and lower than 20%)
- Herbicidal effect grade, O: Chenopodium album (Chenopodium album [6]): 0 (Herbicidal ratio of 5% or lower (almost no effect))
- M: Abutilon theophrasti, herbicidal effect (criteria of Test Example 1) (Abutilon theophrasti [7]): 0 (Herbicidal ratio of 5% or lower (almost no effect))
- b: directly sowed rice plant, effect on crop (criteria of Test Example 1) (rice plant): 1 (Herbicidal ratio of 5% or higher and lower than 20%)
- g: rapeseed, effect on crop (criteria of Test Example 1) (rapeseed [8]): 1 (Herbicidal ratio of 5% or higher and lower than 20%)
- Effect on crop grade, g: rapeseed (rapeseed [9]): 0 (Herbicidal ratio of 5% or lower (almost no effect))
- R: Veronica persica, herbicidal effect (criteria of Test Example 1) (Veronica persica [10]): 0 (Herbicidal ratio of 5% or lower (almost no effect))
- e: wheat, effect on crop (criteria of Test Example 1) (wheat [11]): 0 (Herbicidal ratio of 5% or lower (almost no effect))
- K: Lolium multiflorum Lam., herbicidal effect (criteria of Test Example 1) (Lolium multiflorum Lam. [12]): 3 (Herbicidal ratio of 40% or higher and lower than 70%)
- Herbicidal effect grade, H: Echinochloa crus-galli var. crus-galli [13]: 0 (Herbicidal ratio of 5% or lower (almost no effect))
- I: Avena fatua, herbicidal effect (criteria of Test Example 1) (Avena fatua [14]): 1 (Herbicidal ratio of 5% or higher and lower than 20%)
- f: beet, effect on crop (criteria of Test Example 1) (beet [15]): 0 (Herbicidal ratio of 5% or lower (almost no effect))
- G: Setaria viridis, herbicidal effect (criteria of Test Example 1) (Setaria viridis [16]): 2 (Herbicidal ratio of 20% or higher and lower than 40%)
- O: Chenopodium album, herbicidal effect (criteria of Test Example 1) (Chenopodium album [17]): 0 (Herbicidal ratio of 5% or lower (almost no effect))
- Effect on crop grade, d: soybean (soybean [18]): 0 (Herbicidal ratio of 5% or lower (almost no effect))
- P: Stellaria media, herbicidal effect (criteria of Test Example 1) (Stellaria media [19]): 0 (Herbicidal ratio of 5% or lower (almost no effect))
- Herbicidal effect grade, I: Avena fatua (Avena fatua [20]): 0 (Herbicidal ratio of 5% or lower (almost no effect))
- Herbicidal effect grade, K: Lolium multiflorum Lam. (Lolium multiflorum Lam. [21]): 0 (Herbicidal ratio of 5% or lower (almost no effect))
- N: Amaranthus retroflexus, herbicidal effect (criteria of Test Example 1) (Amaranthus retroflexus [22]): 5 (Herbicidal ratio of 90% or more (almost completely withered))
- Herbicidal effect grade, P: Stellaria media (Stellaria media [23]): 0 (Herbicidal ratio of 5% or lower (almost no effect))
- Herbicidal effect grade, A: Echinochloa oryzacola Vasing. [24]: 2 (Herbicidal ratio of 20% or higher and lower than 40%)
- Herbicidal effect grade, M: Abutilon theophrasti (Abutilon theophrasti [25]): 0 (Herbicidal ratio of 5% or lower (almost no effect))
- Herbicidal effect grade, G: Setaria viridis (Setaria viridis [26]): 0 (Herbicidal ratio of 5% or lower (almost no effect))
- J: Alopecurus myosuroides, herbicidal effect (criteria of Test Example 1) (Alopecurus myosuroides [27]): 3 (Herbicidal ratio of 40% or higher and lower than 70%)
- Herbicidal effect grade, R: Veronica persica (Veronica persica [28]): 0 (Herbicidal ratio of 5% or lower (almost no effect))
- Herbicidal effect grade, C: Monochoria vaginalis (Monochoria vaginalis): 0 (Herbicidal ratio of 5% or lower (almost no effect))
- Herbicidal effect grade, L: Apera spica-venti (Apera spica-venti [29]): 0 (Herbicidal ratio of 5% or lower (almost no effect))
- Effect on crop grade, f: beet (beet [30]): 0 (Herbicidal ratio of 5% or lower (almost no effect))
- Effect on crop grade, b: directly sowed rice plant (rice): 4 (Herbicidal ratio of 70% or higher and lower than 90%)
- Herbicidal effect grade, N: Amaranthus retroflexus (Amaranthus retroflexus [31]): 0 (Herbicidal ratio of 5% or lower (almost no effect))
- Effect on crop grade, c: corn (corn [32]): 0 (Herbicidal ratio of 5% or lower (almost no effect))
- Herbicidal effect grade, F: Digitaria ciliaris (Digitaria ciliaris [33]): 3 (Herbicidal ratio of 40% or higher and lower than 70%)
- Effect on crop grade, e: wheat (wheat [34]): 0 (Herbicidal ratio of 5% or lower (almost no effect))
- L: Apera spica-venti, herbicidal effect (criteria of Test Example 1) (Apera spica-venti [35]): 0 (Herbicidal ratio of 5% or lower (almost no effect))

— US11000033B2, “Ketone or oxime compound, and herbicide” (NISSAN CHEMICAL CORPORATION, priority 2014, dated 2021)
